Read-outs that look alike come from different tables or passages of the source.
Experiments:
[1] = test system: mice; assay: Protection from reserpine-induced depression (ptosis) in mice (antidepressant activity); type: in vivo; conditions: for ED50: Mus musculus; for antidepressant activity (in words): under the conditions of the demonstration
Description: Separate groups of mice and the same origin and past history (5 mice per group) were administered 2-((2-fluorophenyl)azo)-1H-imidazole (Example 3) in an aqueous carrier. Different groups were administered the compound by intraperitoneal injection at various dosage rates. Thirty minutes after the administration of the test compound, the mice were administered reserpine at a dosage rate of 2.5 milligrams per kilogram by intraperitoneal injection. Separate groups of similar mice were similarly administered 2.5 milligrams of reserpine per kilogram 30 minutes after administration of various dosages of the known antidepressant. The mice were then observed for 45 minutes for symptoms of reserpine-induced depression.
Protection from reserpine-induced depression is indicated by the absence of the characteristic ptosis.
The results were employed to calculate the dose effective to protect 50 percent of the mice (ED50) by classical, statistical procedures.
The procedure of Example 15 was repeated using oral administration of 2-((2-fluorophenyl)azo)-1H-imidazole (Example 3) instead of intraperitoneal injection.
Using the general procedure outlined above, the ED50 's were calculated for some of the other imidazoles herein disclosed.

[2] = Acute toxicity, 50 percent lethal dose (LD50); conditions: mouse, in vivo
[3] = test system: mice; assay: Blocking of isolation-induced aggression in mice (antianxiety activity); type: in vivo; conditions: for ED50: Mus musculus, ip, intraperitoneal, 30 min before pairing, doses 10.0, 21.5, 46.4 mg/kg
Description: Antianxiety agents tend to block isolation-induced aggression in mice. Aggression was established in untrained mice by isolating them in individual cages for a period of four weeks. At the end of that period, the mice were paired for three minutes on three test days within one week to establish the absence or presence of aggression. During pairing, one mouse was always in the home cage, and the other was the intruder. […] On test days, each dose of test drug was administered by intraperitoneal injection to five pairs of mice; five additional pairs received only the vehicle and served as controls. Each drug was tested at three doses 10.0 mg, 21.5 mg, and 46.4 mg per kilogram of body weight. Thirty minutes after injection, the intruder was placed in the home cage of his opponent, and aggression was recorded as absent or present. When aggression was present, the intruder was removed immediately so that dominance was not established. Using the same procedure as employed in Examples 15 and 16, ED50 's were established for each compound.

[4] = ip, intraperitoneal, 30 min before reserpine 2.5 mg/kg i.p., observed 45 min, read-out: Intraperitoneal ED50 (dose effective to protect 50 percent of the mice)
[5] = oral, before reserpine 2.5 mg/kg i.p., read-out: Oral ED50
[6] = acute, Table II, route not given, read-out: Acute Toxicity LD50

**Q.** With `Clc1ccccc1N=Nc1ncc[nH]1` [Example 1, 2-((2-chlorophenyl)azo)-1H-imidazole] as the compound, how does the ED50 [1, 4] read?
**A.** 20 mg/kg

**Q.** And the ED50 [1, 5]?
**A.** 23 mg/kg

**Q.** And the LD50 [2, 6]?
**A.** > 562 mg/kg

**Q.** Which results are given for `Cl.Clc1ccccc1N=Nc1ncc[nH]1` [Example 2, 2-((2-chlorophenyl)azo)-1H-imidazole hydrochloride]?
**A.** ED50 [1, 4]: 17 mg/kg; ED50 [1, 5]: 32 mg/kg; LD50 [2, 6]: 316 mg/kg; ED50 [3]: 13.3 mg/kg

**Q.** Which ED50 ([1]; ip, read-out: Intraperitoneal ED50 (dose effective to protect 50 percent of the mice)) does the source give for `Fc1ccccc1N=Nc1ncc[nH]1` [Example 3, 2-((2-fluorophenyl)azo)-1H-imidazole] here?
**A.** 11 mg/kg

**Q.** What about the ED50 ([1]; po, read-out: Oral ED50) of the same compound?
**A.** 11 mg/kg

**Q.** And the selectivity ratio ([2]; ip, intraperitoneal LD50 / intraperitoneal ED50 (reserpine test), read-out: therapeutic index LD50/ED50)?
**A.** 13.4

**Q.** What about the LD50 ([2]; ip, intraperitoneal, acute, read-out: intraperitoneal acute 50 percent lethal dose (LD50)) of the same compound?
**A.** 147 mg/kg

**Q.** What about the ED50 [3] of the same compound?
**A.** 23.7 mg/kg

**Q.** With `c1ccc(N=Nc2ncc[nH]2)cc1` [Example 4] as the compound, how does the ED50 [1, 4] read?
**A.** 20 mg/kg

**Q.** And the ED50 [1, 5]?
**A.** 24 mg/kg

**Q.** What about the LD50 ([2]; read-out: Acute Toxicity LD50) of the same compound?
**A.** 316 mg/kg

**Q.** And the ED50 [3]?
**A.** 27.1 mg/kg

**Q.** What does the source list for `Cc1ccccc1N=Nc1ncc[nH]1` [Example 5]?
**A.** ED50 [1, 4]: 42 mg/kg; ED50 [1, 5]: 43 mg/kg; antianxiety activity (in words) ([3]; isolation-induced aggression in mice): very weak activity

**Q.** Which ED50 [1, 4] does the source give for `Brc1ccccc1N=Nc1ncc[nH]1` [Example 6] here?
**A.** 23 mg/kg

**Q.** And the ED50 [1, 5]?
**A.** 79 mg/kg

**Q.** What about the LD50 ([2]; read-out: Acute Toxicity LD50) of the same compound?
**A.** > 562 mg/kg

**Q.** And the ED50 [3]?
**A.** 28.7 mg/kg

**Q.** Which results are given for `Ic1ccccc1N=Nc1ncc[nH]1` [Example 7]?
**A.** ED50 [1, 5]: 75 mg/kg; LD50 ([2]; read-out: Acute Toxicity LD50): > 562 mg/kg; ED50 [3]: 31.6 mg/kg

**Q.** For `O=[N+]([O-])c1ccccc1N=Nc1ncc[nH]1` [Example 8, 2-((2-nitrophenyl)azo)-1H-imidazole], which “antidepressant activity (in words)” value [1] is on record?
**A.** active as an antidepressant

**Q.** What about the ED50 [3] of the same compound?
**A.** 27.1 mg/kg

**Q.** Which results are given for `N#Cc1ccccc1N=Nc1ncc[nH]1` [Example 9]?
**A.** ED50 [1, 4]: 20 mg/kg; ED50 [1, 5]: 19 mg/kg; LD50 ([2]; read-out: Acute Toxicity LD50): 147 mg/kg; ED50 [3]: 12.6 mg/kg

**Q.** For `Cc1cccc(N=Nc2ncc[nH]2)c1` [Example 10, 2-((3-methylphenyl)azo)-1H-imidazole], which ED50 [1, 4] is on record?
**A.** 27 mg/kg

**Q.** What about the LD50 [2, 6] of the same compound?
**A.** 316 mg/kg

**Q.** What about the ED50 [3] of the same compound?
**A.** 5.84 mg/kg

**Q.** With `Clc1cccc(N=Nc2ncc[nH]2)c1` [Example 11] as the compound, how does the ED50 [1, 4] read?
**A.** 24 mg/kg

**Q.** And the ED50 [1, 5]?
**A.** 32 mg/kg

**Q.** What about the LD50 ([2]; read-out: Acute Toxicity LD50) of the same compound?
**A.** 178 mg/kg

**Q.** What about the ED50 [3] of the same compound?
**A.** 24.5 mg/kg

**Q.** With `Cc1ccc(N=Nc2ncc[nH]2)cc1` [Example 12] as the compound, how does the “antidepressant activity (in words)” value [1] read?
**A.** essentially inactive as antidepressant agents

**Q.** And the ED50 [3]?
**A.** 28.7 mg/kg

**Q.** Which results are given for `Cc1ccc(N=Nc2ncc[nH]2)c(Cl)c1` [Example 13]?
**A.** antidepressant activity (in words) [1]: essentially inactive as antidepressant agents; ED50 [3]: 25.5 mg/kg

**Q.** What does the source list for `Clc1ccc(N=Nc2ncc[nH]2)cc1` [Example 14, 2-((4-chlorophenyl)azo)-1H-imidazole]?
**A.** antidepressant activity (in words) [1]: essentially inactive as antidepressant agents; ED50 [3]: 4.3 mg/kg

Source: patent US4079130A, “Antidepressant phenylazoimidazoles” (The Dow Chemical Company, priority 1977, dated 1978)
